Measurements from patent US20220089550A1, “CRYSTALLINE FORMS OF (S)-2-(7-CYANO-1H-BENZIMIDAZOL-1 YL)-N-{1-[4-(1-CYANO-1-METHYLETHYL)PHENYL]ETHYL}ACETAMIDE” (NEOMED INSTITUTE - INSTITUT NEOMED, priority 2019, published 2022).
Values after ≈ are worked out from the molar mass of the structure shown.

What was measured:
[1] = Thermal stability (TGA, variable temperature XRPD); format: physicochemical
Experimental: Crystals of Form C can be converted (3) to crystals of Form A. For example, crystals of Form C are converted to crystals of Form A by heating the crystals of Form C to 155° C. under nitrogen. Furthermore, crystals of Form C can be converted (5) to crystals of Form F. For example, crystals of Form C are converted to crystals of Form F by heating to 136° C. under nitrogen. […] Further heating of this sample generates a mixture of crystals of Form A and Form F.
Compound 1 appears to be chemically stable up to the decomposition temperature of about 250° C. […] The solid-state stability of the crystalline forms is compared by evaluating the relative “thermodynamic stability” of the crystalline forms and the interconversion between crystalline forms upon heating or when slurrying.
TGA was conducted for each crystalline form using a TA Q500/Q5000 TGA from TA Instruments. For each analysis, the TGA cell/sample chamber was purged with ultra-high purity nitrogen gas. The sample crystal was placed into the bottom of an open aluminium pan. […] The weight was plotted versus the measured sample temperature. The data were reported in % of the initial weight. The TGA thermograms for Forms A to F were obtained and can be seen at FIGS. 7 to 12.

[2] = molecular target: VR1 receptor (Homo sapiens, UniProt Q8NER1); settings: whole cells, intracellular Ca2+ imaging, assay of WO 2008018827; read-out: IC50, antagonist of capsaicin responses; cited from earlier work
[3] = Slurry conversion of Form A/Form E and Form A/Form F mixtures in IPA; format: physicochemical; settings: equal-mass mixtures with Form E or Form F in pre-saturated IPA, room temperature, 48 h
Experimental: Excess amounts of crystals of Form A were added to 2 mL of IPA. The mixture was magnetically stirred at a speed of 750 rpm at room temperature overnight to obtain a saturated solution. The saturated solution was filtered on a PTFE membrane (0.45 μm) to remove the excess solids.
(§1) An equal-mass physical mixture of crystals of Form A and Form E (6 mg of each Form) was added into 0.5 mL of the pre-saturated IPA solution and magnetically stirred at a speed of 750 rpm for 48 h. Solids were isolated from the suspension by centrifugation and an XRPD test was performed (shown at FIG. 19(b)).
as §1, with “Similarly, an” for “An”, “F” for “E”, “19(c)).” for “19(b)).”
In the case of both mixtures, only crystals of Form A were isolated after stirring for 48 h.

[4] = Stability tests for Form A (temperature, relative humidity, compression; XRPD); format: physicochemical
Experimental: Experiments were conducted to evaluate the stability of Form A under various temperature, relative humidity and compression conditions.

[5] = Approximate solubility of crystals of Form A at room temperature; format: physicochemical; settings: thermodynamic from solid
Experimental: Approximately 2 mg solids were added into a 3-mL glass vial. Solvents as listed in Table 7 were then added stepwise into the vials until the solids were dissolved or a total volume of 1 mL was reached. The results are summarized in Table 7, and were used to guide solvent selection in the polymorph screening.

Chain of VR1 receptor (Q8NER1 whole entry): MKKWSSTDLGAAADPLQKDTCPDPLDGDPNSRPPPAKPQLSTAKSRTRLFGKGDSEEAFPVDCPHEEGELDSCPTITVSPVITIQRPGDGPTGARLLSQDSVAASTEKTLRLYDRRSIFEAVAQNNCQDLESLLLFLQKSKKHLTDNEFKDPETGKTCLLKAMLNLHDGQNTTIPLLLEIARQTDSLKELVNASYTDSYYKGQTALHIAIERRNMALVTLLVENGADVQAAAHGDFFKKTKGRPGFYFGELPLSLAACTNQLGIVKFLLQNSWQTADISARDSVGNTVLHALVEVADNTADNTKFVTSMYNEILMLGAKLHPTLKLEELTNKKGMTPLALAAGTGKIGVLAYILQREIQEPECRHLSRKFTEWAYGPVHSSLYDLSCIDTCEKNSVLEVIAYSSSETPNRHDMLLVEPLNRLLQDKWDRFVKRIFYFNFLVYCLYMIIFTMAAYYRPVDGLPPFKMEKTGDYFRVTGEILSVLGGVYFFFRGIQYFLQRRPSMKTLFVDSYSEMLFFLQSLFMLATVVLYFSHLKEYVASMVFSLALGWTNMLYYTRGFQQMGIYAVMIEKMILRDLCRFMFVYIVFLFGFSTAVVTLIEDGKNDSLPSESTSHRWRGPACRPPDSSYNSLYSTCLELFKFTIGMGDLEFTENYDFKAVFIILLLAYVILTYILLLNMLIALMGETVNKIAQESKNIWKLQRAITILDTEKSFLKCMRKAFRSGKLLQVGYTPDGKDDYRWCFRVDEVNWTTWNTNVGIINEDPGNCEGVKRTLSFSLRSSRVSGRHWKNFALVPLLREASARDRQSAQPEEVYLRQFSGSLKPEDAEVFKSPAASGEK

C[C@H](NC(=O)Cn1cnc2cccc(C#N)c21)c1ccc(C(C)(C)C#N)cc1 [Compound 1, (S)-2-(7-Cyano-1H-benzimidazol-1-yl)-N-{1-[4-(1-cyano-1-methylethyl)phenyl]ethyl}acetamide]
Decomposition temperature (chemically stable up to) ([1]; TGA, 10° C./min, nitrogen): about 250 °C | IC50 [2]: 41 to 49 nM

C[C@H](NC(=O)Cn1cnc2cccc(C#N)c21)c1ccc(C(C)(C)C#N)cc1 [Form A, (S)-2-(7-Cyano-1H-benzimidazol-1-yl)-N-{1-[4-(1-cyano-1-methylethyl)phenyl]ethyl} acetamide]
Temperature up to which the crystalline form is stable ([1]; heating, variable temperature XRPD / DSC): about 167.9 °C | Thermodynamic stability by slurry conversion [3]: thermodynamically stable form at room temperature among the three anhydrate Forms | Effect of grinding on XRPD ([4]; aggressive grinding for 2 minutes): minor decrease in the relative intensity of the peaks | Stability of the crystal structure (XRPD) on stressed samples ([4]; various temperature, relative humidity and compression conditions, compared to Form A as synthesized): crystalline structure remained generally similar | solubility ([5]; 25 °C, organic solvent or mixture, 1,4-Dioxane, room temperature): > 36 mg/mL | solubility ([5]; 25 °C, organic solvent or mixture, 2-MeTHF, room temperature): > 36 mg/mL | solubility ([5]; 25 °C, organic solvent or mixture, ACN, room temperature): > 40 mg/mL | solubility ([5]; 25 °C, organic solvent or mixture, Acetone, room temperature): > 38 mg/mL | solubility ([5]; 25 °C, organic solvent or mixture, Anisole, room temperature): 7.3 to 22 mg/mL (≈ 19.7 to 59.2 mM) | solubility ([5]; 25 °C, organic solvent or mixture, CHCl3, room temperature): > 42 mg/mL | solubility ([5]; 25 °C, organic solvent or mixture, DCM, room temperature): > 40 mg/mL | solubility ([5]; 25 °C, organic solvent or mixture, DMAc, room temperature): > 36 mg/mL | solubility ([5]; 25 °C, organic solvent or mixture, DMSO, room temperature): > 44 mg/mL | solubility ([5]; 25 °C, organic solvent or mixture, EtOAc, room temperature): 22 to 44 mg/mL (≈ 59.2 to 118 mM) | solubility ([5]; 25 °C, organic solvent or mixture, EtOH, room temperature): > 40 mg/mL | solubility ([5]; 25 °C, organic solvent or mixture, IPA, room temperature): 7 to 21 mg/mL (≈ 18.8 to 56.5 mM) | solubility ([5]; 25 °C, organic solvent or mixture, IPAc, room temperature): 6.7 to 20 mg/mL (≈ 18 to 53.8 mM) | solubility ([5]; 25 °C, organic solvent or mixture, MEK, room temperature): > 40 mg/mL | solubility ([5]; 25 °C, organic solvent or mixture, MIBK, room temperature): 18 to 36 mg/mL (≈ 48.5 to 96.9 mM) | solubility ([5]; 25 °C, organic solvent or mixture, MTBE, room temperature): < 1.8 mg/mL | solubility ([5]; 25 °C, organic solvent or mixture, THF, room temperature): > 40 mg/mL | solubility ([5]; 25 °C, organic solvent or mixture, Toluene, room temperature): < 2.1 mg/mL | solubility ([5]; 25 °C, organic solvent or mixture, n-Heptane, room temperature): < 2.2 mg/mL | solubility ([5]; organic solvent or mixture, MeOH, room temperature (25° C.±2° C.)): > 42 mg/mL | solubility ([5]; water, 25 °C, H2O, room temperature): < 2.1 mg/mL
